ChEMBL document CHEMBL1201862, “PubChem BioAssay data set” (2004)
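Cultured in 96-well plates, cells were exposed to test compound for 48 hours across five concentrations. Abbreviation: GI50, concentration required for 50% inhibition of growth.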 Calls of active or inactive are those of the source. Rule as the data show it: active = GI50 up to about 1.1 µM and inactive = higher.

Experiments:
Assay in all cases: NCI anticancer screen, dose series, 48 h
[1] = system: A498
[2] = system: ACHN
[3] = system: COLO 205
[4] = system: DLD-1
[5] = system: DMS-114
[6] = system: HOP-18
[7] = system: KM-20L2
[8] = system: LXFL 529
[9] = system: M14
[10] = system: M19-MEL
[11] = system: MOLT-4
[12] = system: SK-MEL-2
[13] = system: SNB-78
[14] = system: SR
[15] = system: DMS-273
[16] = system: MCF7
[17] = system: NCI/ADR-RES
[18] = system: XF498
[19] = system: PC-3
[20] = system: TK-10

COc1ccc(N2C(=O)/C(=C(\C)c3cc4ccccc4oc3=O)N=C2c2cc([N+](=O)[O-])ccc2Cl)cc1
GI50 [1]: 24 µM (inactive)
GI50 [2]: 32.1 µM (inactive)
GI50 [3]: 43.9 µM (inactive)
GI50 [4]: 54.7 µM (inactive)
GI50 [5]: 24.2 µM (inactive)
GI50 [6]: 85.1 µM (inactive)
GI50 [7]: 29.7 µM (inactive)
GI50 [8]: 29.9 µM (inactive)
GI50 [9]: 23.6 µM (inactive)
GI50 [10]: 42.1 µM (inactive)
GI50 [11]: 29.7 µM (inactive)
GI50 [12]: 61 µM (inactive)
GI50 [13]: 24.4 µM (inactive)
GI50 [14]: 34.4 µM (inactive)

O=c1ccn([C@@H]2C=C(CO)[C@@H](O)[C@H]2O)c(=O)[nH]1
GI50 [3]: > 625 µM (inactive)
GI50 [4]: > 625 µM (inactive)
GI50 [15]: > 625 µM (inactive)
GI50 [6]: > 625 µM (inactive)
GI50 [7]: > 625 µM (inactive)
GI50 [16]: > 625 µM (inactive)
GI50 [17]: > 625 µM (inactive)
GI50 [12]: > 625 µM (inactive)
GI50 [18]: < 0.0625 µM (active)

COc1ccc(C2COc3cc(OC(C)=O)c(OC(C)=O)cc3C2)cc1 (stereo not drawn)
GI50 [1]: 4.54 µM (inactive)
GI50 [3]: 20 µM (inactive)
GI50 [4]: 20.5 µM (inactive)
GI50 [5]: 5.65 µM (inactive)
GI50 [15]: 17.9 µM (inactive)
GI50 [6]: 2.78 µM (inactive)
GI50 [7]: 31.4 µM (inactive)
GI50 [10]: 14.2 µM (inactive)
GI50 [16]: 29.4 µM (inactive)
GI50 [11]: 5.66 µM (inactive)
GI50 [17]: 36.3 µM (inactive)
GI50 [12]: 31.7 µM (inactive)
GI50 [13]: 26.1 µM (inactive)
GI50 [18]: 8.49 µM (inactive)

CCOP(=O)(COCCn1ncc(=O)[nH]c1=O)OCC
GI50 [1]: > 100 µM (inactive)
GI50 [2]: > 100 µM (inactive)
GI50 [3]: > 100 µM (inactive)
GI50 [9]: > 100 µM (inactive)
GI50 [16]: > 100 µM (inactive)
GI50 [11]: > 100 µM (inactive)
GI50 [17]: > 100 µM (inactive)
GI50 [19]: > 100 µM (inactive)
GI50 [12]: > 100 µM (inactive)
GI50 [14]: > 100 µM (inactive)
GI50 [20]: > 100 µM (inactive)

COc1cccc2c1C(=O)c1c(O)c3c(c(O)c1C2=O)C[C@@](O)(C(=O)CN1CCOCC1)C[C@@H]3OC1CC(N)C(O)C(C)O1 (stereo partly drawn)
GI50 [1]: 8.55 µM (inactive)
GI50 [3]: 5.94 µM (inactive)
GI50 [4]: 7.71 µM (inactive)
GI50 [5]: 3.52 µM (inactive)
GI50 [15]: 2.23 µM (inactive)
GI50 [6]: 0.000832 µM (active)
GI50 [7]: 9.77 µM (inactive)
GI50 [10]: 3.39 µM (inactive)
GI50 [16]: 0.938 µM (active)
GI50 [17]: 5.52 µM (inactive)
GI50 [12]: 9.48 µM (inactive)
GI50 [18]: 2.45 µM (inactive)

CCCCN(C)/N=N/c1[nH]cnc1C(N)=O
GI50 [1]: > 71.1 µM (inactive)
GI50 [3]: > 100 µM (inactive)
GI50 [4]: > 100 µM (inactive)
GI50 [5]: > 100 µM (inactive)
GI50 [15]: 58.7 µM (inactive)
GI50 [6]: > 100 µM (inactive)
GI50 [7]: > 50.2 µM (inactive)
GI50 [10]: > 100 µM (inactive)
GI50 [16]: > 100 µM (inactive)
GI50 [11]: 41.2 µM (inactive)
GI50 [17]: > 100 µM (inactive)
GI50 [12]: 44.6 µM (inactive)
GI50 [13]: > 100 µM (inactive)
GI50 [18]: 32.4 µM (inactive)

O=C1C2=C(C3=NCCc4c[nH]c1c43)c1c(cc(Br)c(O)c1Br)CCN2
GI50 [1]: 20.2 µM (inactive)
GI50 [3]: 3.31 µM (inactive)
GI50 [4]: 8.2 µM (inactive)
GI50 [5]: 2.96 µM (inactive)
GI50 [15]: 12.6 µM (inactive)
GI50 [6]: 20 µM (inactive)
GI50 [7]: 5.07 µM (inactive)
GI50 [10]: 2.79 µM (inactive)
GI50 [16]: 7.69 µM (inactive)
GI50 [11]: 2.81 µM (inactive)
GI50 [17]: 14.5 µM (inactive)
GI50 [12]: 13.6 µM (inactive)
GI50 [13]: 5.64 µM (inactive)
GI50 [18]: 13.9 µM (inactive)

COc1ccc(/C=c2\sc3n(c2=O)CCN=3)cc1
GI50 [2]: > 100 µM (inactive)
GI50 [4]: > 100 µM (inactive)
GI50 [6]: 88.3 µM (inactive)
GI50 [7]: > 100 µM (inactive)
GI50 [8]: > 100 µM (inactive)
GI50 [9]: > 100 µM (inactive)
GI50 [10]: > 100 µM (inactive)
GI50 [11]: 68.5 µM (inactive)
GI50 [12]: > 100 µM (inactive)
GI50 [13]: > 100 µM (inactive)
GI50 [14]: > 100 µM (inactive)
GI50 [20]: > 100 µM (inactive)

CN1COCN/C1=N/C#N
GI50 [1]: > 100 µM (inactive)
GI50 [2]: > 100 µM (inactive)
GI50 [3]: > 100 µM (inactive)
GI50 [4]: > 100 µM (inactive)
GI50 [5]: > 100 µM (inactive)
GI50 [6]: > 100 µM (inactive)
GI50 [7]: > 100 µM (inactive)
GI50 [8]: > 100 µM (inactive)
GI50 [9]: > 100 µM (inactive)
GI50 [10]: > 100 µM (inactive)
GI50 [11]: > 100 µM (inactive)
GI50 [12]: > 100 µM (inactive)
GI50 [13]: > 100 µM (inactive)
GI50 [18]: > 100 µM (inactive)

NCCCN(CCCN)CCN(CCN(CCCN)CCCN)CCN(CCCN)CCCN
GI50 [2]: > 100 µM (inactive)
GI50 [3]: > 100 µM (inactive)
GI50 [9]: > 100 µM (inactive)
GI50 [16]: > 100 µM (inactive)
GI50 [11]: > 10 µM (inactive)
GI50 [17]: > 100 µM (inactive)
GI50 [19]: > 100 µM (inactive)
GI50 [12]: > 100 µM (inactive)
GI50 [14]: > 100 µM (inactive)
GI50 [20]: > 100 µM (inactive)

CC1=NCCc2cc3[nH]c4ccccc4c3cc21
GI50 [1]: 11.5 µM (inactive)
GI50 [3]: 9.91 µM (inactive)
GI50 [4]: 19.2 µM (inactive)
GI50 [5]: 11.6 µM (inactive)
GI50 [15]: 13.6 µM (inactive)
GI50 [6]: 18.7 µM (inactive)
GI50 [7]: 11.2 µM (inactive)
GI50 [10]: 14.9 µM (inactive)
GI50 [16]: 15.1 µM (inactive)
GI50 [11]: 11.5 µM (inactive)
GI50 [17]: 23.7 µM (inactive)
GI50 [12]: 11.3 µM (inactive)
GI50 [13]: 28.2 µM (inactive)
GI50 [18]: 10.9 µM (inactive)

COc1ccccc1OCC(COC(=O)Nc1ccccc1)OC(=O)Nc1ccccc1 (stereo not drawn)
GI50 [1]: 60.3 µM (inactive)
GI50 [2]: > 100 µM (inactive)
GI50 [3]: 94.2 µM (inactive)
GI50 [4]: > 100 µM (inactive)
GI50 [5]: 47.1 µM (inactive)
GI50 [15]: 54.6 µM (inactive)
GI50 [6]: 59.3 µM (inactive)
GI50 [7]: > 100 µM (inactive)
GI50 [8]: 27.5 µM (inactive)
GI50 [9]: 91.8 µM (inactive)
GI50 [12]: 23.1 µM (inactive)
GI50 [13]: 43.3 µM (inactive)
GI50 [20]: > 100 µM (inactive)
GI50 [18]: 60.4 µM (inactive)

CCOC(=O)c1ccc(N(CCOS(C)(=O)=O)CCOS(C)(=O)=O)cc1
GI50 [1]: 35.2 µM (inactive)
GI50 [2]: 26 µM (inactive)
GI50 [3]: 64.9 µM (inactive)
GI50 [9]: 53.1 µM (inactive)
GI50 [16]: 47.3 µM (inactive)
GI50 [11]: 17.8 µM (inactive)
GI50 [17]: 35.7 µM (inactive)
GI50 [19]: 50.7 µM (inactive)
GI50 [12]: 55.2 µM (inactive)
GI50 [20]: 83.4 µM (inactive)

C/C=C1\C[C@@H]2C(OC)Nc3cc(O)c(OC)cc3C(=O)N2C1 (stereo partly drawn)
GI50 [1]: 0.0273 µM (active)
GI50 [2]: 0.00179 µM (active)
GI50 [3]: 0.00692 µM (active)
GI50 [4]: 0.00319 µM (active)
GI50 [5]: 0.00118 µM (active)
GI50 [15]: 0.00129 µM (active)
GI50 [6]: 0.0213 µM (active)
GI50 [7]: 0.00887 µM (active)
GI50 [8]: 0.00301 µM (active)
GI50 [9]: 0.00461 µM (active)
GI50 [10]: 0.00612 µM (active)
GI50 [16]: < 0.01 µM (active)
GI50 [11]: < 0.01 µM (active)
GI50 [17]: < 0.01 µM (active)
GI50 [19]: < 0.01 µM (active)
GI50 [12]: < 0.01 µM (active)
GI50 [14]: 0.000431 µM (active)
GI50 [20]: < 0.0171 µM (active)

C[C@H]1O[C@@H](O[C@H]2[C@@H](O)C[C@H](O[C@H]3[C@@H](O)C[C@H](O[C@H]4CC[C@@]5(C)[C@H](CC[C@@H]6[C@@H]5CC[C@]5(C)[C@@H](C7=CC(=O)OC7)CC[C@]65O)C4)O[C@@H]3C)O[C@@H]2C)C[C@H](O)[C@@H]1O [DIGITOXIN]
GI50 [2]: < 0.015 µM (active)
GI50 [3]: 0.0501 µM (active)
GI50 [16]: 0.0413 µM (active)
GI50 [17]: 0.0283 µM (active)
GI50 [19]: < 0.033 µM (active)
GI50 [12]: 0.0641 µM (active)
GI50 [14]: 0.0338 µM (active)
GI50 [20]: 0.0252 µM (active)
